Source: US20080311126A1, “Antisense Oligonucleotides Directed to Ribonucleotide Reducatase R2 and Uses Thereof in Combination Therapies for the Treatment of Cancer” (Genesense Technologies, Inc, priority 2004, published 2008)
Oligonucleotides are written 5' to 3', each unit as a sugar letter and its base; * is a phosphorothioate linkage, no mark a phosphodiester; rarer units and linkages stand in square brackets, end groups in braces. Plain capitals give the bases only. d = 2'-deoxy (DNA)

Columns and labels:
Format in all cases: cell-based, human
[1] = tested on: T-47D breast ductal carcinoma; assay: Relative colony forming efficiency (Example 17, Table 13); conditions: averages of 2-8 determinations
Procedure, shortened: (§1)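 Phosphorothioate antisense oligonucleotides were delivered to tumour cell cultures with 2.5 μg DOTMA/DOPE (Lipofectin) over four hours, at 0.2 μM unless otherwise indicated. Surviving colonies were stained with methylene blue and scored. Values are % inhibition of colony formation relative to lipofectin-only controls.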

[2] = tested on: HepG2 hepatocellular carcinoma; assay: as above; conditions: averages of 2-8 determinations
Procedure, shortened: as §1

A549 lung cell carcinoma = assay: as above; conditions: averages of 2-8 determinations
Procedure, shortened: as §1

[3] = tested on: PC-3 prostrate cell adenocarcinoma; assay: as above; conditions: averages of 2-8 determinations
Procedure, shortened: as §1

[4] = tested on: T24 bladder cell carcinoma; assay: as above; conditions: averages of 2-8 determinations
Procedure, shortened: as §1

[5] = tested on: HCT116 colon cell carcinoma; assay: as above; conditions: averages of 2-8 determinations
Procedure, shortened: as §1

[6] = tested on: MDA-MB-231 breast cell adenocarcinoma; assay: as above; conditions: averages of 2-8 determinations
Procedure, shortened: as §1

[7] = tested on: MDA PaCa-2 pancreatic cell carcinoma; assay: as above; conditions: MIA PaCa-2 pancreatic cell carcinoma; averages of 2-8 determinations
Procedure, shortened: as §1

Hela S3 cells = assay: Relative colony forming efficiency, lipofectin +/- oligonucleotide 4 hours; conditions: Hela S3 cervix carcinoma cells; averages of 2-8 determinations
Description: Colony forming efficiency was determined using standard protocols. Briefly, the cells were cultured for 24 hours at 37° C. in growth medium with 10% fetal bovine serum. The cells were washed in 5 ml phosphate buffered saline, pH 7.2, once prior to lipofectin +/−oligonucleotide treatment.
The test oligonucleotides were added to cell cultures in the presence of 2.5 μg of DOTMA/DOPE (Lipofectin; Life Technologies, Inc.) for four hours. The oligonucleotide was tested at 0.2 μM unless otherwise indicated. Controls were the cultures treated with lipofectin but without the oligonucleotide. After 4 hours the medium containing the oligonucleotide was removed and washed with 5 ml of growth medium. The cells were then cultured in growth medium containing 10% fetal bovine serum for seven to ten days. Surviving cells were visualized by methylene blue staining, and colonies were scored. In some experiments cell aliquots were removed from the culture and viability was determined using the trypan blue exclusion test. Results were analyzed as percent of surviving cells compared to control cells.
AS-II-336-20 was tested for the ability to inhibit the proliferation of human tumour cells (Hela). Hela S3 cells (American Type Culture Collection, Rockville, Md., ATCC), and a Hela cell line (Hela 1 mM) previously selected for resistance to the antitumour agent, hydroxyurea, were tested (see results in Table 11). Two experiments were undertaken with Hela S3 cells. […] The same experiment was repeated with the Hela 1 mM cell line and with varying concentrations of the antisense construct AS-II-336-20 (see results in Table 11) with similar results, […] was an effective concentration for inhibiting colony formation.
To test the antisense effects of many of these sequences as phosphorthioate deoxyribonucleotides, they were examined in relative colony forming experiments conducted as described in Example 16 with a series of human tumour cell lines. The results (shown as % inhibition of colony forming ability) obtained with cancer cells derived from the bladder, breast, lung, colon, pancreas, prostate, liver and cervix, are shown in Table 13. The specific cell lines employed are as follows:
T24=bladder cell carcinoma HCT116=colon cell carcinoma A549=lung cell carcinoma MDA-MB-231=breast cell adenocarcinoma […]=pancreatic cell carcinoma PC-3=prostrate cell adenocarcinoma HepG2=hepatocellular carcinoma HeLaS3=cells isolated from a carcinoma of the cervix T-47D=breast ductal carcinoma H596=lung adenosquamous carcinoma cells Colo320=colon cell adenocarcinoma

Sequence: AAAAATCAGCCAAGTAAGGG (antisense dA*dA*dA*dA*dA*dT*dC*dA*dG*dC*dC*dA*dA*dG*dT*dA*dA*dG*dG*dG) [AS-II-1381-20]
- Reduced relative colony forming efficiency, T-47D (% inhibition of colony forming ability) [1]: 93.62%
- Reduced relative colony forming efficiency, HepG2 (% inhibition of colony forming ability) [2]: 62.34%
- Reduced relative colony forming efficiency, A549 (% inhibition of colony forming ability) (A549 lung cell carcinoma): 86.02%
- Reduced relative colony forming efficiency, PC-3 (% inhibition of colony forming ability) [3]: 75%
- Reduced relative colony forming efficiency, T24 (% inhibition of colony forming ability) [4]: 71.37%
- Reduced relative colony forming efficiency, HCT116 (% inhibition of colony forming ability) [5]: 89.48%
- Reduced relative colony forming efficiency, MDA-MB-231 (% inhibition of colony forming ability) [6]: 44.41%
- Reduced relative colony forming efficiency, MIA PaCa-2 (% inhibition of colony forming ability) [7]: 73.77%
- Reduced relative colony forming efficiency, Hela S3 (% inhibition of colony forming ability) (Hela S3 cells): 80.53%

Sequence: AAAACCTTGCTAAAACCCAG (antisense dA*dA*dA*dA*dC*dC*dT*dT*dG*dC*dT*dA*dA*dA*dA*dC*dC*dC*dA*dG) [AS-II-1197-20]
- Reduced relative colony forming efficiency, T-47D (% inhibition of colony forming ability) [1]: 81.95%
- Reduced relative colony forming efficiency, HepG2 (% inhibition of colony forming ability) [2]: 76.32%
- Reduced relative colony forming efficiency, A549 (% inhibition of colony forming ability) (A549 lung cell carcinoma): 89.15%
- Reduced relative colony forming efficiency, PC-3 (% inhibition of colony forming ability) [3]: 74.4%
- Reduced relative colony forming efficiency, T24 (% inhibition of colony forming ability) [4]: 90.3%
- Reduced relative colony forming efficiency, HCT116 (% inhibition of colony forming ability) [5]: 84.85%
- Reduced relative colony forming efficiency, MDA-MB-231 (% inhibition of colony forming ability) [6]: 50.35%
- Reduced relative colony forming efficiency, MIA PaCa-2 (% inhibition of colony forming ability) [7]: 70.68%
- Reduced relative colony forming efficiency, Hela S3 (% inhibition of colony forming ability) (Hela S3 cells): 82.68%

Sequence: CCCAGTTCCAGCATAAGTCT (antisense dC*dC*dC*dA*dG*dT*dT*dC*dC*dA*dG*dC*dA*dT*dA*dA*dG*dT*dC*dT) [AS-II-1182-20]
- Reduced relative colony forming efficiency, T-47D (% inhibition of colony forming ability) [1]: 92.41%
- Reduced relative colony forming efficiency, HepG2 (% inhibition of colony forming ability) [2]: 92.23%
- Reduced relative colony forming efficiency, A549 (% inhibition of colony forming ability) (A549 lung cell carcinoma): 80.06%
- Reduced relative colony forming efficiency, PC-3 (% inhibition of colony forming ability) [3]: 92.76%
- Reduced relative colony forming efficiency, T24 (% inhibition of colony forming ability) [4]: 94.51%
- Reduced relative colony forming efficiency, HCT116 (% inhibition of colony forming ability) [5]: 88.13%
- Reduced relative colony forming efficiency, MIA PaCa-2 (% inhibition of colony forming ability) [7]: 84.72%
- Reduced relative colony forming efficiency, Hela S3 (% inhibition of colony forming ability) (Hela S3 cells): 90.61%

Sequence: CTGCTTTAGTTTTCGGCTCC (antisense dC*dT*dG*dC*dT*dT*dT*dA*dG*dT*dT*dT*dT*dC*dG*dG*dC*dT*dC*dC) [AS-II-362-20]
- Reduced relative colony forming efficiency, HepG2 (% inhibition of colony forming ability) [2]: 95.78%
- Reduced relative colony forming efficiency, A549 (% inhibition of colony forming ability) (A549 lung cell carcinoma): 61.81%
- Reduced relative colony forming efficiency, PC-3 (% inhibition of colony forming ability) [3]: 75.78%
- Reduced relative colony forming efficiency, T24 (% inhibition of colony forming ability) [4]: 89.63%
- Reduced relative colony forming efficiency, HCT116 (% inhibition of colony forming ability) [5]: 62.81%
- Reduced relative colony forming efficiency, MDA-MB-231 (% inhibition of colony forming ability) [6]: 85.83%
- Reduced relative colony forming efficiency, MIA PaCa-2 (% inhibition of colony forming ability) [7]: 34.2%
- Reduced relative colony forming efficiency, Hela S3 (% inhibition of colony forming ability) (Hela S3 cells): 45.69%

Sequence: GCTCCCACATATGAAAACTC (antisense dG*dC*dT*dC*dC*dC*dA*dC*dA*dT*dA*dT*dG*dA*dA*dA*dA*dC*dT*dC) [AS-II-2229A-20]
- Reduced relative colony forming efficiency, T-47D (% inhibition of colony forming ability) [1]: 58.82%
- Reduced relative colony forming efficiency, HepG2 (% inhibition of colony forming ability) [2]: 73.26%
- Reduced relative colony forming efficiency, A549 (% inhibition of colony forming ability) (A549 lung cell carcinoma): 69.72%
- Reduced relative colony forming efficiency, PC-3 (% inhibition of colony forming ability) [3]: 89.58%
- Reduced relative colony forming efficiency, T24 (% inhibition of colony forming ability) [4]: 50.34%
- Reduced relative colony forming efficiency, HCT116 (% inhibition of colony forming ability) [5]: 93.01%
- Reduced relative colony forming efficiency, MIA PaCa-2 (% inhibition of colony forming ability) [7]: 33.61%
- Reduced relative colony forming efficiency, Hela S3 (% inhibition of colony forming ability) (Hela S3 cells): 63.15%

Sequence: GTCTCTCCTCCGATGGTTTG [AS-II-1040-20]
- Reduced relative colony forming efficiency, T-47D (% inhibition of colony forming ability) [1]: 64.76%
- Reduced relative colony forming efficiency, HepG2 (% inhibition of colony forming ability) [2]: 77.78%
- Reduced relative colony forming efficiency, A549 (% inhibition of colony forming ability) (A549 lung cell carcinoma): 85.82%
- Reduced relative colony forming efficiency, PC-3 (% inhibition of colony forming ability) [3]: 40.08%
- Reduced relative colony forming efficiency, T24 (% inhibition of colony forming ability) [4]: 59.49%
- Reduced relative colony forming efficiency, HCT116 (% inhibition of colony forming ability) [5]: 70.08%
- Reduced relative colony forming efficiency, MIA PaCa-2 (% inhibition of colony forming ability) [7]: 43.52%
- Reduced relative colony forming efficiency, Hela S3 (% inhibition of colony forming ability) (Hela S3 cells): 71.87%

Sequence: TCAGAGGGGGCAGAGAATCC (antisense dT*dC*dA*dG*dA*dG*dG*dG*dG*dG*dC*dA*dG*dA*dG*dA*dA*dT*dC*dC) [AS-II-2044-20]
- Reduced relative colony forming efficiency, HepG2 (% inhibition of colony forming ability) [2]: 62.35%
- Reduced relative colony forming efficiency, A549 (% inhibition of colony forming ability) (A549 lung cell carcinoma): 25.55%
- Reduced relative colony forming efficiency, PC-3 (% inhibition of colony forming ability) [3]: 74.48%
- Reduced relative colony forming efficiency, T24 (% inhibition of colony forming ability) [4]: 53.63%
- Reduced relative colony forming efficiency, HCT116 (% inhibition of colony forming ability) [5]: 49.34%
- Reduced relative colony forming efficiency, MDA-MB-231 (% inhibition of colony forming ability) [6]: 19.11%
- Reduced relative colony forming efficiency, MIA PaCa-2 (% inhibition of colony forming ability) [7]: 24.48%
- Reduced relative colony forming efficiency, Hela S3 (% inhibition of colony forming ability) (Hela S3 cells): 24.55%

Sequence: TCCTCGGCGGTCCAAA (antisense dT*dC*dC*dT*dC*dG*dG*dC*dG*dG*dT*dC*dC*dA*dA*dA) [AS-II-496-16]
- Reduced relative colony forming efficiency, T-47D (% inhibition of colony forming ability) [1]: 10.79%
- Reduced relative colony forming efficiency, HepG2 (% inhibition of colony forming ability) [2]: 54.8%
- Reduced relative colony forming efficiency, A549 (% inhibition of colony forming ability) (A549 lung cell carcinoma): 74.45%
- Reduced relative colony forming efficiency, PC-3 (% inhibition of colony forming ability) [3]: 88.84%
- Reduced relative colony forming efficiency, T24 (% inhibition of colony forming ability) [4]: 78.48%
- Reduced relative colony forming efficiency, HCT116 (% inhibition of colony forming ability) [5]: 70.85%
- Reduced relative colony forming efficiency, MDA-MB-231 (% inhibition of colony forming ability) [6]: 45.8%
- Reduced relative colony forming efficiency, Hela S3 (% inhibition of colony forming ability) (Hela S3 cells): 52.21%

Sequence: TCTGCCTTCTTCTTGACACA (antisense dT*dC*dT*dG*dC*dC*dT*dT*dC*dT*dT*dC*dT*dT*dG*dA*dC*dA*dC*dA) [AS-II-798-20]
- Reduced relative colony forming efficiency, HepG2 (% inhibition of colony forming ability) [2]: 89.46%
- Reduced relative colony forming efficiency, A549 (% inhibition of colony forming ability) (A549 lung cell carcinoma): 70.49%
- Reduced relative colony forming efficiency, PC-3 (% inhibition of colony forming ability) [3]: 83.21%
- Reduced relative colony forming efficiency, T24 (% inhibition of colony forming ability) [4]: 84.72%
- Reduced relative colony forming efficiency, HCT116 (% inhibition of colony forming ability) [5]: 64.46%
- Reduced relative colony forming efficiency, MDA-MB-231 (% inhibition of colony forming ability) [6]: 83.92%
- Reduced relative colony forming efficiency, MIA PaCa-2 (% inhibition of colony forming ability) [7]: 34.65%
- Reduced relative colony forming efficiency, Hela S3 (% inhibition of colony forming ability) (Hela S3 cells): 56.42%

Sequence: TTCTCTTACTCTCTCCTCCG (antisense dT*dT*dC*dT*dC*dT*dT*dA*dC*dT*dC*dT*dC*dT*dC*dC*dT*dC*dC*dG) [AS-II-1048-20]
- Reduced relative colony forming efficiency, HepG2 (% inhibition of colony forming ability) [2]: 77.56%
- Reduced relative colony forming efficiency, A549 (% inhibition of colony forming ability) (A549 lung cell carcinoma): 65.67%
- Reduced relative colony forming efficiency, PC-3 (% inhibition of colony forming ability) [3]: 84.38%
- Reduced relative colony forming efficiency, T24 (% inhibition of colony forming ability) [4]: 40.32%
- Reduced relative colony forming efficiency, HCT116 (% inhibition of colony forming ability) [5]: 42.63%
- Reduced relative colony forming efficiency, MDA-MB-231 (% inhibition of colony forming ability) [6]: 66.88%
- Reduced relative colony forming efficiency, MIA PaCa-2 (% inhibition of colony forming ability) [7]: 33.4%
- Reduced relative colony forming efficiency, Hela S3 (% inhibition of colony forming ability) (Hela S3 cells): 39.19%
